Columns and labels:
[1] = system: lung cancer cell line A549; assay: In vitro cell inhibition assay (crystal violet), lung cancer A549; type: cell-based, human
From the text: (§1) In vitro Cell inhibition assay is as follows:
(§2) The human cancer cell lines used for this assay were bladder cancer J82, T24, prostate cancer LNCap, PC-3, lung cancer A549, H157, H460, H520, colon cancer HCT8, HCT116, RkO, and leukemia HL-60, etc.
(§3) In vitro cell culture technology was selected for the determination of inhibition rate bladder cancer cell lines J82 and T24, prostate cancer cell lines LNCap and PC-3, lung cancer cell lines A549, H157, H460 and H520. 1000 to 3000 cells were inoculated to 24-well plate, followed by addition of 1 mL culture medium well known to researchers in this field to each well, the cells were cultured in 5% incubator for 24 hours at 37° C., then the different concentration compounds and controls were added to each well. It should be noted that the added volume is not more than 0.5% of total volume. After completion of addition, the cells continued being cultured in incubator for one week, the culture medium was removed and washed by cold PBS of 1 mL once, and then fixed for 10 minutes at room temperature with 1% formalin, followed by wash with PBS of 1 mL. After fixation, stain was carried out with 0.1% crystal violet for 30 minutes. 0.1% crystal violet was recycled. The stained cells were washed gently with deionized water, dried at room temperature and kepted. The inhibition rate was calculated according to the foiling equation. The controls are Selumetinib (AZD6244), Gefitinib, Cisplatin. Inhibition rate=number of left cells each treatment/number of left cells of untreated control×100%

[2] = system: human leukemia HL-60 cells; assay: Proliferation inhibition of human leukemia HL-60 cells, MTT method; type: cell-based; settings: 48 h incubation, OPTI-MEM medium
Method: The inhibition rate of human leukemia HL-60 cells was evaluated by regular MTT method. The human leukemia HL-60 cells were picked up from cell incubator, after washed for twice using PBS, cells were digested by 0.25% trypsin, and then add medium to terminate the digestion. After cells were collected using centrifuge and re-suspended, counting cells under inverted microscope and adding medium to make a density which was 5×10^4 cells/mL. After 100 μL aliquots were added to each well of 96-well microtiter plates, cells were cultured in 5% incubator for overnight at 37° C., then the different concentration compounds were added to each well. After incubation for 48 h, MTT solution was added to each well and plates were then incubated for 4 h. The MTT tetrazolium was reduced to formazan by living cells. Then the formazan crystals were dissolved though adding DMSO to each well. The absorbance was read at 570 nm with a microplate reader.

[3] = system: lung cancer cell line H460; assay: In vitro cell inhibition assay (crystal violet), lung cancer H460; type: cell-based, human
From the text: as §1, §2, §3

[4] = system: lung cancer cell line H520; assay: In vitro cell inhibition assay (crystal violet), lung cancer H520; type: cell-based, human
From the text: as §1, §2, §3

colon cancer HCT116 = assay: In vitro cell inhibition assay, colon cancer HCT116; type: cell-based, human
From the text: as §1, §2

colon cancer RkO = assay: In vitro cell inhibition assay, colon cancer RkO; type: cell-based, human
From the text: as §1, §2

colon cancer HCT8 = assay: In vitro cell inhibition assay, colon cancer HCT8; type: cell-based, human
From the text: as §1, §2

[5] = system: bladder cancer cell line J82; assay: In vitro cell inhibition assay (crystal violet), bladder cancer J82; type: cell-based, human; settings: Homo sapiens, read-out: Inhibition rate on human cancer cells
From the text: as §1, §2, §3

| SMILES | Inhibition rate on human cancer cells ([1]; A549, 5.0 μM) [%] | Inhibition rate on human cancer cells ([3]; H460, 1.0 μM) [%] | Inhibition rate on human cancer cells ([3]; H460, 2.5 μM) [%] | Inhibition rate on human cancer cells ([3]; H460, 5.0 μM) [%] | Inhibition rate on human cancer cells ([4]; H520, 0.25 μM) [%] | Inhibition rate on human cancer cells ([4]; H520, 0.5 μM) [%] | Inhibition rate on human cancer cells ([4]; H520, 1.0 μM) [%] | Inhibition rate on human cancer cells ([4]; H520, 2.5 μM) [%] | Inhibition rate on human cancer cells ([4]; H520, 5.0 μM) [%] | Inhibition rate on human cancer cells (colon cancer HCT116; HCT 116, 0.25 μM) [%] | Inhibition rate on human cancer cells (colon cancer HCT116; HCT 116, 0.5 μM) [%] | Inhibition rate on human cancer cells (colon cancer HCT116; HCT 116, 1.0 μM) [%] | Inhibition rate on human cancer cells (colon cancer HCT116; HCT 116, 2.5 μM) [%] | Inhibition rate on human cancer cells (colon cancer HCT116; HCT 116, 5.0 μM) [%] | Inhibition rate on human cancer cells ([1]; A549, 0.25 μM) [%] | Inhibition rate on human cancer cells ([1]; A549, 0.5 μM) [%] | Inhibition rate on human cancer cells ([1]; A549, 1.0 μM) [%] | Inhibition rate on human cancer cells ([1]; A549, 2.5 μM) [%] | Inhibition rate on human cancer cells ([3]; H460, 0.5 μM) [%] | Inhibition rate on human cancer cells (colon cancer RkO; 0.25 μM) [%] | also measured |
| --- | --- | --- | --- | --- | --- | --- | --- | --- | --- | --- | --- | --- | --- | --- | --- | --- | --- | --- | --- | --- | --- |
| COC=C(C(=O)OC)c1ccccc1COc1ccc2c(C)c(F)c(=O)oc2c1 [Compound 28-50] | 90 | 70 | 90 | 95 | 30 | 50 | 60 | 80 | 100 |  |  |  |  |  |  |  |  |  |  |  | Proliferation inhibitory effect on human leukemia HL-60 cell (%) ([2]; concentration 1 μM): 47.1%; Proliferation inhibitory effect on human leukemia HL-60 cell (%) ([2]; concentration 10 μM): 83.1%; Proliferation inhibitory effect on human leukemia HL-60 cell (%) ([2]; concentration 100 μM): 84.8% |
| COC=C(C(=O)OC)c1ccccc1COc1ccc2c3c(c(=O)oc2c1)CCCC3 [Compound 28-128] | 100 | 100 | 100 | 100 | 70 | 100 | 100 | 100 | 100 | 95 | 100 | 100 | 100 | 100 | 70 | 100 | 100 | 100 | 100 | 99 | Inhibition rate on human cancer cells ([3]; H460, 0.25 μM): 80%; Inhibition rate on human cancer cells (colon cancer RkO; 0.5 μM): 100%; Inhibition rate on human cancer cells (colon cancer RkO; 1.0 μM): 100%; Inhibition rate on human cancer cells (colon cancer RkO; 2.5 μM): 100%; Inhibition rate on human cancer cells (colon cancer RkO; 5.0 μM): 100%; Inhibition rate on human cancer cells (colon cancer HCT8; HCT 8, 0.25 μM): 95%; Inhibition rate on human cancer cells (colon cancer HCT8; HCT 8, 0.5 μM): 100%; Inhibition rate on human cancer cells (colon cancer HCT8; HCT 8, 1.0 μM): 100%; Inhibition rate on human cancer cells (colon cancer HCT8; HCT 8, 2.5 μM): 100%; Inhibition rate on human cancer cells (colon cancer HCT8; HCT 8, 5.0 μM): 100% |
| COC=C(C(=O)OC)c1ccccc1COc1ccc2c3c(c(=O)oc2c1C)CCCC3 [Compound 28-129] | 100 | 95 | 100 | 100 | 85 | 95 | 100 | 100 | 100 | 90 | 95 | 100 | 100 | 100 | 90 | 95 | 100 | 100 | 70 | 85 | Inhibition rate on human cancer cells (colon cancer RkO; 0.5 μM): 99%; Inhibition rate on human cancer cells (colon cancer RkO; 1.0 μM): 100%; Inhibition rate on human cancer cells (colon cancer RkO; 2.5 μM): 100%; Inhibition rate on human cancer cells (colon cancer RkO; 5.0 μM): 100%; Inhibition rate on human cancer cells (colon cancer HCT8; HCT 8, 0.25 μM): 80%; Inhibition rate on human cancer cells (colon cancer HCT8; HCT 8, 0.5 μM): 95%; Inhibition rate on human cancer cells (colon cancer HCT8; HCT 8, 1.0 μM): 100%; Inhibition rate on human cancer cells (colon cancer HCT8; HCT 8, 2.5 μM): 100%; Inhibition rate on human cancer cells (colon cancer HCT8; HCT 8, 5.0 μM): 100% |
| CO/C=C(/C(=O)OC)c1ccccc1COc1ccc(C(F)(F)F)cc1Cl [compound B, flufenoxystrobin] |  |  |  |  |  |  |  |  |  |  |  |  |  |  |  |  |  |  |  |  | inhibition at 0.25 µM ([5]; J82, 0.25 μM): 0%; inhibition at 0.5 µM ([5]; J82, 0.5 μM): 50%; inhibition at 1 µM ([5]; J82, 1.0 μM): 90%; inhibition at 2.5 µM ([5]; J82, 2.5 μM): 95%; inhibition at 5 µM ([5]; J82, 5.0 μM): 100% |
